From patent publication US12472193B2, “Methods and compositions for treating and preventing respiratory related diseases and conditions with xylitol-headgroup lipid analogs” (National Jewish Health, priority 2017, dated 2025)
Entries after “also recorded” stand apart in the source; their conditions may differ.

Legend:
TLR 2/1 = biological target: T1, TLR 2/1 (Mus musculus, UniProt Q9EPQ1+Q9QUN7); assay: Pam3Cys-induced TNFα release by RAW264.7 cells (TLR 2/1 antagonism); assay type: cell-based; settings: for suppression of TLR 2/1 activation (TNFα release): Pam3Cys, 4 hours; for TLR2/1 antagonist activity: reduction in cytokine secretion vs activating TLR ligand alone
T1 construct: endogenous in cells; host or cells: RAW264.7 (ATCC)
T1 sequence (Q9QUN7 25-784): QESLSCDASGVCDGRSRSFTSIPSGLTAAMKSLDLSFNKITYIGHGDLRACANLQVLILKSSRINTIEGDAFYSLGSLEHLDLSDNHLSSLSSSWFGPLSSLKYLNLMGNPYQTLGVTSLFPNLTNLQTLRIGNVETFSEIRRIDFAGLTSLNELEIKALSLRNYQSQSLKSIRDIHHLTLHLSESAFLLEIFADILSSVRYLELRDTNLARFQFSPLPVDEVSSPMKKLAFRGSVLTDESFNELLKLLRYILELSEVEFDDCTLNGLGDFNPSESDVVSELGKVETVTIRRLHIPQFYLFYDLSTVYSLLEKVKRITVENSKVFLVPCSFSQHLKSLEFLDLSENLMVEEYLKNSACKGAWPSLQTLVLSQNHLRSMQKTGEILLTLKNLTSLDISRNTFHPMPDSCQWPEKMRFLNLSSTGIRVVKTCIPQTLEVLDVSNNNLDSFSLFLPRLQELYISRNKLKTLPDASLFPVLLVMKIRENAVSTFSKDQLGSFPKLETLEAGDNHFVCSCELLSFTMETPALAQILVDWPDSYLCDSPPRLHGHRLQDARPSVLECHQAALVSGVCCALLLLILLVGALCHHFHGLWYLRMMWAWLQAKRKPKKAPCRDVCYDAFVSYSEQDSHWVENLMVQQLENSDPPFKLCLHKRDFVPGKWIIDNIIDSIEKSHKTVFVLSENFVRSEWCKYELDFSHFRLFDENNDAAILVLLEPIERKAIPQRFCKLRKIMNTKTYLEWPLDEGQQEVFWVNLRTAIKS
T1 sequence (Q9EPQ1 25-795 limits assumed): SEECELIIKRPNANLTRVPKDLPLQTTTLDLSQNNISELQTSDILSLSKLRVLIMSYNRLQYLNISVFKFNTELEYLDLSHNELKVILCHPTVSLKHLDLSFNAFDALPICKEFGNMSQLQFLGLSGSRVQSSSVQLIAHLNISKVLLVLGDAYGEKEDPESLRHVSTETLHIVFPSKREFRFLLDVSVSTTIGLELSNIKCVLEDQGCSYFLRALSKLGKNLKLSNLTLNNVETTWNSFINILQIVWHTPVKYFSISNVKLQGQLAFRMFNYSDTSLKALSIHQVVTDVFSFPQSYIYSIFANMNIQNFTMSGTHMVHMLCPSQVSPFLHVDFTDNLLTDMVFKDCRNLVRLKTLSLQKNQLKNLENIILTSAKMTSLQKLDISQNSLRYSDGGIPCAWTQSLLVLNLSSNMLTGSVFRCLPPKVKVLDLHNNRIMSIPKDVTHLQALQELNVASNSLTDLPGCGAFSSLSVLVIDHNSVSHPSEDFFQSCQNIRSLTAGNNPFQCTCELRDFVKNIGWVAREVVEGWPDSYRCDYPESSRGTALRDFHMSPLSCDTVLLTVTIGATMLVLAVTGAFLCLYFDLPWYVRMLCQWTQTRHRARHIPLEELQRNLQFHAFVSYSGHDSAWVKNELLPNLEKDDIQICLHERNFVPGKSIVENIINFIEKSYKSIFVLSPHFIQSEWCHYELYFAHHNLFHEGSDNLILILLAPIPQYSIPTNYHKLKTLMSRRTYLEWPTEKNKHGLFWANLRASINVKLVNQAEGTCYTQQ
Protocol: (§1) The mouse macrophage cell line, RAW264.7, was obtained from ATCC and maintained in DMEM, supplemented with 10% bovine growth serum and 1× penicillin streptomycin. Cells were maintained at 37° C. with 5% carbon dioxide: 95% air atmosphere within the incubator. Experiments were completed in a 96-well plate where cells were seated at a density of 1×10^5 cells per well, 24 prior to stimulation with TLR agonists and antagonists. Lipids were dried under a stream of nitrogen, hydrated with phosphate-buffered saline (PBS) at 37° C. for one hour, followed by water bath sonication to create liposomes. Each condition for cell stimulation and antagonism was prepared in DMEM in a separate tube and consisted of: control, TLR agonist, TLR agonist+lipid, and lipid alone. 100 μL aliquots of medium+agonists+antagonists were added to each well and incubated at 37° C. for 4 hours. Subsequently, the media were collected, diluted and an enzyme-linked immunosorbent assay (ELISA) was performed to quantify TNFα release by cells.
The ability of xylitol lipid analogs to suppress the activation of TLR 2 heterodimers was assessed. Pam3Cys was used to selectively stimulate TLR 2/1 signaling in RAW264.7 cells and MALP-2 was used as a TLR 2/6 selective agonist also in RAW264.7 cells. RAW264.7 cells were stimulated with Pam3Cys in the absence, or presence of PX lipids for 4 hours. Following incubation, media were collected, diluted and analyzed for TNFα release as a consequence of TLR activation. Results for analog activity against TLR 2/1 activation was assessed at two concentrations of phospholipid and are summarized in FIGS. 4A and 4B.
Initially, activity of xylitol lipid analogs was assessed at 100 μg/mL and it was unclear whether there was a real antagonist effect especially when compared to POPG. Experiments were repeated with a 200 μg/mL concentration of lipid to determine the ability of PX lipids to suppress TLR 2/1 activation in the presence of Pam3Cys. […] DPPX could have an effect on TLR 2/1 signaling at high concentrations.

TLR 7 = biological target: T2, TLR 7 (Mus musculus, UniProt P58681); assay: polyU-induced TNFα secretion by RAW264.7 cells (TLR 7 antagonism); assay type: cell-based; settings: for antagonism of TLR 7 activation (TNFα release): 20 μg/mL polyU, 20 μg/mL phospholipid, 4 hours; for TLR7 antagonist activity: reduction in cytokine secretion vs activating TLR ligand alone
T2 construct: endogenous in cells; host or cells: RAW264.7 (ATCC)
T2 sequence (P58681 27-1050): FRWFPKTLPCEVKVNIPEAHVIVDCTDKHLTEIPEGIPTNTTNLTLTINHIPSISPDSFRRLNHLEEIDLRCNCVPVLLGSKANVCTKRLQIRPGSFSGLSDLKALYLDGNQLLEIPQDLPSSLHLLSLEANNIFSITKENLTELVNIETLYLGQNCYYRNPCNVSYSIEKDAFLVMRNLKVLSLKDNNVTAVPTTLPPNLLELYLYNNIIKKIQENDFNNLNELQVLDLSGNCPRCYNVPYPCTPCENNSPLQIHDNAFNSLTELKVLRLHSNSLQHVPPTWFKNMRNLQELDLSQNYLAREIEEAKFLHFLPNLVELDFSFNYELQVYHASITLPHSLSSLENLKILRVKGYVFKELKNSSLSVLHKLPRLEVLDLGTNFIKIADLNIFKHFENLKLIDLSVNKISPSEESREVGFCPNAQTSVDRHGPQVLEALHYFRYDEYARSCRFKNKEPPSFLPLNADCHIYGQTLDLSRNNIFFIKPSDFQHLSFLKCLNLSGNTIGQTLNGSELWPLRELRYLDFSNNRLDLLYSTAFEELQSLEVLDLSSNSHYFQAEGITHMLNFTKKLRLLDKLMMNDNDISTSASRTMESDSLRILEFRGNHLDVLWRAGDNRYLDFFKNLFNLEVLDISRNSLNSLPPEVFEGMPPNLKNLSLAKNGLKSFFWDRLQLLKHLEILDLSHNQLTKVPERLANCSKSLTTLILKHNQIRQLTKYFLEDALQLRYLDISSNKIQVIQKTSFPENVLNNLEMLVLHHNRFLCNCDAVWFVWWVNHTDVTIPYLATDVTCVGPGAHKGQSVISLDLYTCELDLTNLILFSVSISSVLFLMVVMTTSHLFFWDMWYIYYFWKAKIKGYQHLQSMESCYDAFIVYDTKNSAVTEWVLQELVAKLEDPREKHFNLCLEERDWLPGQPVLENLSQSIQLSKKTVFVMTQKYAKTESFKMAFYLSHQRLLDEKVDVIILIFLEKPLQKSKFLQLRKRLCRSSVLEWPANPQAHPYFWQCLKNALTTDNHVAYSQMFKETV
Protocol: as §1
TLR 7 is an intracellular receptor of the endosomal compartment. TLR 7 was the first innate immune receptor reported druggable with small molecules, however no breakthrough treatments have been discovered with TLR 7 agonists/antagonists yet (T. Y.-H. Wu, “Strategies for Designing Synthetic Immune Agonists,” Immunology, 2016). TLR 7 detects single-stranded RNA (ssRNA) within endosomal compartments. Xylitol lipids were assessed for antagonism of TLR 7 activation in the presence of the synthetic ssRNA analog, polyuridylic acid (polyU). The macrophage cell line, RAW264.7, was used to assess antagonist activity of PX analogs in a TLR 7-dependent manner. Cells were stimulated with 20 μg/mL polyU for 4 hours in the absence or presence of 20 μg/mL phospholipid. After a 4-hour stimulation media were collected and TNFα secretion was quantified by ELISA. […] Saturated, ester-linked phospholipids appear to be ineffective at antagonizing TLR 7 activation where as their unsaturated ester-linked and saturated ether-linked counterparts were effective.

Row | SMILES | suppression of TLR 2/1 activation (TNFα release) (TLR 2/1; 100 μg/mL lipid) | suppression of TLR 2/1 activation (TNFα release) (TLR 2/1; 200 μg/mL lipid) | TLR2/1 antagonist activity (TLR 2/1) | antagonism of TLR 7 activation (TNFα release) (TLR 7) | TLR7 antagonist activity (TLR 7) | suppression of TLR 2/1 activation (TNFα release) (TLR 2/1; 200 μg/mL lipid, listed as 18:2 DEPX)
1 | CCCCCCCCC=CCCCCCCCCOCC(COP(=O)(O)OCC(O)C(O)C(O)CO)OCCCCCCCCC=CCCCCCCCC (mixture of isomers) [18:1 DEPX, sn-1-O-octadecenyl, sn-2-O-octadecenyl sn-3 glycerol phosphoxylitol] | modest antagonists | inhibit TLR2/1 activation to almost the same extent as the bioactive lipid POPG; also recorded: strongly suppressed; also recorded: suppressed TLR 2/1 activation | + (cutoff being greater than a 50% reduction in cytokine secretion compared to activating TLR ligand alone) | markedly inhibited; also recorded: inhibit | + (cutoff being greater than a 50% reduction in cytokine secretion compared to activating TLR ligand alone) | –
2 | CCCCCCCCCCCCCC(=O)OC[C@H](COP(=O)(O)OCC(O)C(O)C(O)CO)OC(=O)CCCCCCCCCCCCC (mixture of isomers) [DMPX, sn-1-myristoyl, sn-2-myristoyl sn-3 glycerol phosphoxylitol] | ineffective at both concentrations | not effective antagonists | – | – | – | –
3 | CCCCCC=CCC=CCCCCCCCC(=O)OCC(COP(=O)(O)OCC(O)C(O)C(O)CO)OC(=O)CCCCCCCC=CCC=CCCCCC (mixture of isomers) [18:2 DLPX, sn-1-linoleoyl, sn-2-linoleoyl sn-3 glycerol phosphoxylitol] | modest antagonists | strongly suppressed; also recorded: suppressed TLR 2/1 activation | + (cutoff being greater than a 50% reduction in cytokine secretion compared to activating TLR ligand alone) | markedly inhibited | + (cutoff being greater than a 50% reduction in cytokine secretion compared to activating TLR ligand alone) | inhibit TLR2/1 activation to almost the same extent as the bioactive lipid POPG
4 | CCCCCCC=CCCCCCCCC(=O)OCC(COP(=O)(O)OCC(O)C(O)C(O)CO)OC(=O)CCCCCCCC=CCCCCCC (mixture of isomers) [16:1 DPPX, sn-1-palmitoleoyl, sn-2-palmitoleoyl sn-3 glycerol phosphoxylitol] | did not appear to suppress activation | inhibit TLR2/1 activation to almost the same extent as the bioactive lipid POPG; also recorded: strongly suppressed; also recorded: suppressed TLR 2/1 activation | + (cutoff being greater than a 50% reduction in cytokine secretion compared to activating TLR ligand alone) | markedly inhibited | + (cutoff being greater than a 50% reduction in cytokine secretion compared to activating TLR ligand alone) | –
5 | CCCCCCCCC=CCCCCCCCC(=O)OCC(COP(=O)(O)OCC(O)C(O)C(O)CO)OC(=O)CCCCCCCC=CCCCCCCCC (mixture of isomers) [DOPX, sn-1-oleoyl, sn-2-oleoyl sn-3 glycerol phosphoxylitol] | modest antagonists | inhibit TLR2/1 activation to almost the same extent as the bioactive lipid POPG; also recorded: strongly suppressed; also recorded: suppressed TLR 2/1 activation | + (cutoff being greater than a 50% reduction in cytokine secretion compared to activating TLR ligand alone) | markedly inhibited; also recorded: inhibit | + (cutoff being greater than a 50% reduction in cytokine secretion compared to activating TLR ligand alone) | –
6 | CCCCCCCC/C=C\CCCCCCCC(=O)O[C@H](COC(=O)CCCCCCCCCCCCCCC)COP(=O)(O)OCC(O)C(O)C(O)CO (some centres unmarked) [POPX, sn-1-palmitoyl, sn-2-oleoyly sn-3 glycerol phosphoxylitol] | modest antagonists | inhibit TLR2/1 activation to almost the same extent as the bioactive lipid POPG; also recorded: strongly suppressed; also recorded: suppressed TLR 2/1 activation | + (cutoff being greater than a 50% reduction in cytokine secretion compared to activating TLR ligand alone) | – | + (cutoff being greater than a 50% reduction in cytokine secretion compared to activating TLR ligand alone) | –
7 | CCCCCCCCCCCCCCCCCC(=O)OCC(COP(=O)(O)OCC(O)C(O)C(O)CO)OC(=O)CCCCCCCCCCCCCCCCC (centres unmarked) [DSPX, sn-1-stearoyl, sn-2-stearoyl sn-3 glycerol phosphoxylitol] | ineffective at both concentrations | not effective antagonists | – | – | – | –
8 | CCCCCCCCCCCCCCCC(=O)OCC(COP(=O)(O)OCC(O)C(O)C(O)CO)OC(=O)CCCCCCCCCCCCCCC (centres unmarked) [DPPX, sn-1-palmitoyl, sn-2-palmitoyl sn-3 glycerol phosphoxylitol] | – | weakly effective | – | – | – | –
9 | CCCCCCCC/C=C\CCCCCCCC(=O)O[C@H](COC(=O)CCCCCCCCCCCCCCC)COP(=O)([O-])OCC[N+](C)(C)C [POPC, 1-palmitoyl-2-oleoyl-sn-glycero-3-phosphocholine, reference compound] | unaffected | unaffected | – | not affected | – | –
10 | CCCCCCCCCCCCCCOC[C@H](COP(=O)(O)OCC(O)C(O)C(O)CO)OCCCCCCCCCCCCCC (mixture of isomers) [14:0 DEPX, sn-1-O-myristyl, sn-2-O-myristyl sn-3 glycerol phosphoxylitol] | modest antagonists | inhibit TLR2/1 activation to almost the same extent as the bioactive lipid POPG; also recorded: strongly suppressed; also recorded: suppressed TLR 2/1 activation | + (cutoff being greater than a 50% reduction in cytokine secretion compared to activating TLR ligand alone) | markedly inhibited | + (cutoff being greater than a 50% reduction in cytokine secretion compared to activating TLR ligand alone) | –
